The results in this text go back to US6852735B1, “Siastatin B derivatives having a glycosidase inhibitory activity and processes for producing the same” (Zaidan Hojin Biseibutsu Kagaku Kenkyu Kai, priority 1998, dated 2005).

A value given as a limit tells only on which side of the number the result lay.

The target of test [1] is T1, β-D-galactosidase (from Aspergillus niger) (Aspergillus niger, UniProt P29853).
T1 construct: originated from Aspergillus niger; purchased Sigma Company; host or cells: Aspergillus niger
T1 sequence (P29853 20-1006): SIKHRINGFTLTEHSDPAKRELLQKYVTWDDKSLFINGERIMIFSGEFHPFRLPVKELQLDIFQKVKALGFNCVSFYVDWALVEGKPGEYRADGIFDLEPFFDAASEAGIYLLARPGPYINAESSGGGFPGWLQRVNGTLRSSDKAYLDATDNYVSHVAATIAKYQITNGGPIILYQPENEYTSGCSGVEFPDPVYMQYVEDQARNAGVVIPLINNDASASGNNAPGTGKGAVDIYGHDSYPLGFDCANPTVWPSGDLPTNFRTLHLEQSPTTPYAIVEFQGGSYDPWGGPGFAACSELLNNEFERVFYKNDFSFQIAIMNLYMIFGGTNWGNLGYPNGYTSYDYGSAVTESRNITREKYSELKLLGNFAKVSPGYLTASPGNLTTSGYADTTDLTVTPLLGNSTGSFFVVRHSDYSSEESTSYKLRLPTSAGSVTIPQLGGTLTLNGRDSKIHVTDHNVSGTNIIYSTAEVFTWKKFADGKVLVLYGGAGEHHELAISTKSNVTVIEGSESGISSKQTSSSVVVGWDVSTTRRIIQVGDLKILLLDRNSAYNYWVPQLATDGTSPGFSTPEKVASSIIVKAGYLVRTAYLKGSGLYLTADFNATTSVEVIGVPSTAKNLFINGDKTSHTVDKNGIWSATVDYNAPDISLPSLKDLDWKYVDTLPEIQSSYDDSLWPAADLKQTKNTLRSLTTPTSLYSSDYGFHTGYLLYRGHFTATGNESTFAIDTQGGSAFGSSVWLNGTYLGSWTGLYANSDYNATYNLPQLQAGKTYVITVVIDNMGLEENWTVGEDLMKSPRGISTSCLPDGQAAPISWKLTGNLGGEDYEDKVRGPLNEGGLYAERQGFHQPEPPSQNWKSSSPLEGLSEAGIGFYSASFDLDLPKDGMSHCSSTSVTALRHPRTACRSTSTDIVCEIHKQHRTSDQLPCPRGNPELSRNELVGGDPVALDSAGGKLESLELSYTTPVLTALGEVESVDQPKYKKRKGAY
Description: β-galactosidase inhibition (Test Example 3). The settings on record: for inhibition of β-D-galactosidase, in words: summary of Table 1. The test is classed as biochemical. Here is the method: (§1) Thus, 0.5 mL of 0.025M citrate-phosphate buffer (pH 4.0), 0.1 mL of the same buffer containing 10 mM p-nitro-phenyl-N-acetyl-α-D-galactosaminide dissolved therein, and 0.1 mL of either water or an aqueous solution containing as the test compound any one of the compounds of the formulae (I), (V) and (X) according to this invention were mixed with each other and pre-incubated in a 96-wells titer plate at 37° C. for 10 minutes. After the completion of the pre-incubation, to the pre-incubated mixture was added 0.01 mL of 0.025 M citrate-phosphate buffer containing α-N-acetyl-galactosaminidase originated from chicken liver (a product of Sigma Company) which was dissolved in said buffer as a glycosidase to be tested. Thereafter, the enzymatic reaction was conducted at 37° C. for 30 minutes.
(§2) After the enzymatic reaction, to the reaction solution was added 1.0 mL of 0.3M glycine—sodium hydroxide buffer (pH 10.5), in order to terminate the enzymatic reaction. Thereafter, the absorbance [designated as value (a)] of light at 405 nm of the resulting reaction solution was measured. Concurrently, measurement was made of the absorbance [designated as value (b)] at 405 nm of the reaction solution as obtained in the control test where the enzymatic reaction was conducted without addition of the test compound. Further, measurements were made of the absorbance [designated as values (a′)] and the absorbance [[designated as values (b′)] at 405 nm of the solutions as obtained in the blank test and the control test, respectively, where the enzymatic reaction was not conducted in the assay test. The rate of inhibition to […] was calculated by the equation: [1-(a-a′)/(b-b′)]×100.
(§3) The test results obtained are summarized as IC50 value in Table 1 below.
This Test Example is a test example for determining the α-galactosidase or β-galactosidase-inhibitory activity of the compound of the formula (I), (V) or (X) according to this invention.
The evaluation of the α-galactosidase or β-galactosidase-inhibitory activity was conducted according to a modification of the method described in the “Journal of Biological Chemistry”, 240, p.2468 (1965).
Namely, the test was conducted in the same manner as the test for the enzyme-inhibitory activity described in Test Example 1, but with using α-galactosidase or β-galactosidase (products of by Sigma Company) originated from Aspergillus niger, as the glycosidase enzyme, and with using p-nitrophenyl-α-D-galactoside and p-nitrophenyl-β-D-galactoside as the substrate. Furthermore, absorbances of light at 405 nm were measured in the same manner as in Test Example 1. IC50 values of the test compound capable of giving the 50% inhibition to the enzymes were calculated.

Test [2] addresses T2, α-N-acetylgalactosaminidase (from chicken liver) (Gallus gallus, UniProt Q90744).
T2 construct: originated from chicken liver (a product of Sigma Company); purchased Sigma Company; host or cells: chicken liver
T2 sequence (Q90744 1-405): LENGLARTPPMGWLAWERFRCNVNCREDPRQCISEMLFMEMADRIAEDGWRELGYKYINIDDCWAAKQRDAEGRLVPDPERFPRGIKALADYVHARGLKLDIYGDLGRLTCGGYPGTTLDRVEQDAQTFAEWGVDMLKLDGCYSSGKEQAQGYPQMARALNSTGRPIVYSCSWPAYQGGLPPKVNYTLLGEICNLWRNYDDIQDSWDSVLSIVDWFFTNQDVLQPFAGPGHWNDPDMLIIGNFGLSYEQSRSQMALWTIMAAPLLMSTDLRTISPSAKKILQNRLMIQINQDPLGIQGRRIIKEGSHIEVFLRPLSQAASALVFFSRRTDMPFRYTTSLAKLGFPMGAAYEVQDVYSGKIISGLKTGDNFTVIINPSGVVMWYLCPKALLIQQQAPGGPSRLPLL
Nature of the test: α-N-acetylgalactosaminidase inhibition (Test Example 1). The format is biochemical. The settings on record: for IC50: α-N-acetylgalactosaminidase from chicken liver, substrate p-nitrophenyl-N-acetyl-α-D-galactosaminide, pH 4.0, 37° C., 30 minutes, read-out: 50% inhibiory concentration (IC50) Enzyme A (converted). The method, then: This Test Example is a test example for determining the N-acetylgalactosaminidase-inhibitory activity of the compound of the formula (I), (V) or (X) according to this invention.
Assay of the N-acetylgalactosaminidase-inhibitory activity was conducted according to a modification of the method described in the “Journal of Biological Chemistry”, 252, pp.5194-5200(1977).
as §1, §2, §3

As for `O=C(N[C@H]1NC[C@H](CO)[C@H](O)[C@@H]1O)C(F)(F)F` [Formula (I), 6-deacetamido-3-decarboxy-3-hydroxymethyl-6-trifluoroacetamido-siastain B], in test [1], the IC50 was 0.194 µM and the “inhibition of β-D-galactosidase, in words” value was “inhibit strongly”. In addition, the “inhibition of N-acetyl-galactosaminidase, in words” value in test [2] (summary of Table 1) was “inhibit strongly”. Further, the IC50 in test [2] is 2.52 µM.

As to `CC(=O)NC1NCC(CO)C(O)C1O` (stereo not drawn) [Formula (V), 3-decarboxy-4-epi-3-hydroxymethyl-siastain B], the IC50 in test [1] and in test [2] was above 490 µM in each case.

Turning to `O=C(N[C@H]1NC[C@H](CO)[C@@H](O)[C@@H]1O)C(F)(F)F` [Formula (X), 6-deacetamido-3-decarboxy-4-epi-3-hydroxymethyl-6-trifluoroacetamido-siastain B], in test [1], the IC50 is 232 µM and the “inhibition of β-D-galactosidase, in words” value is on record as “inhibit strongly”. Besides, the IC50 in test [2] was above 387 µM.
